# Assay results taken from US20050124498A1, “Halobenzyl substituted phenylaceto esters and amides and use thereof for prevention of harmful organisms” (priority 2002, published 2005).
# Assays:
# [1] = tested on: Erysiphe graminis f.sp. hordei; experiment: Erysiphe test (barley)/protective; type: in vivo; conditions: Blumeria graminis, 168 h, protective, application rate 500 g/ha, evaluation 7 days after inoculation, read-out: efficacy
# Description: Erysiphe test (barley)/protective [table] To produce a suitable preparation of active compound, 1 part by weight of active compound is mixed with the stated amounts of solvent and emulsifier, and the concentrate is diluted with water to the desired concentration. To test for protective activity, young plants are sprayed with the preparation of active compound at the stated application rate. After the spray coating has dried on, the plants are dusted with spores of Erysiphe graminis f.sp. hordei. The plants are placed in a greenhouse at a temperature of about 20° C. and a relative atmospheric humidity of about 80% to promote the development of mildew pustules.
# [2] = tested on: apple scab pathogen Venturia inaequalis; experiment: Venturia test (apple)/protective; type: in vivo; conditions: 240 h, protective, application rate 100 g/ha, evaluation 10 days after inoculation, read-out: efficacy
# Description: Venturia test (apple)/protective […] To produce a suitable preparation of active compound, 1 part by weight of active compound is mixed with the stated amounts of solvent and emulsifier, and the concentrate is diluted with water to the desired concentration. To test for protective activity, young plants are sprayed with the preparation of active compound at the stated application rate. After the spray coating has dried on, the plants are inoculated with an aqueous conidia suspension of the apple scab pathogen Venturia inaequalis and then remain in an incubation cabin at about 20° C. and 100% relative atmospheric humidity for 1 day. The plants are then placed in a greenhouse at about 21° C. and a relative atmospheric humidity of about 90%.
# Sphaerotheca fuliginea = experiment: Sphaerotheca test (cucumber)/protective; type: in vivo; conditions: Podosphaera fuliginea, 168 h, protective, application rate 100 g/ha, evaluation 7 days after inoculation, read-out: efficacy
# Description: (§1) Sphaerotheca test (cucumber)/protective [table] To produce a suitable preparation of active compound, 1 part by weight of active compound is mixed with the stated amounts of solvent and emulsifier, and the concentrate is diluted with water to the desired concentration. To test for protective activity, young plants are sprayed with the preparation of active compound at the stated application rate. After the spray coating has dried on, the plants are inoculated with an aqueous spore suspension of Sphaerotheca fuliginea. The plants are then placed in a greenhouse at about 23° C. and about 70% relative atmospheric humidity.
# Phytophthora infestans = experiment: whole plant or invertebrate; type: in vivo; conditions: in Solanum lycopersicum, 72 h, read-out: efficacy
# [3] = tested on: apple mildew pathogen Podosphaera leucotricha; experiment: Podosphaera test (apple)/protective; type: in vivo; conditions: 240 h, protective, application rate 100 g/ha, evaluation 10 days after inoculation, read-out: efficacy
# Description: as §1, with “Podosphaera” for “Sphaerotheca”, “(apple)/protective” for “(cucumber)/protective”, “the apple mildew pathogen Podosphaera leucotricha.” for “Sphaerotheca fuliginea.”
compound,measurement,setting,value
"CO/N=C(/C(=O)OC)c1c(F)cccc1Oc1ccccc1 [Example 3, methyl (2-fluoro-6-phenoxyphenyl)methoxyiminoacetate]",chromatographic logP,"physchem; pH 2, log P (pH 2)",3.24
same,pest or weed control at 500 g/ha,[1],≥ 98%
"CNC(=O)/C(=N/OC)c1c(F)cccc1Oc1ccccc1 [Example 4, 2-(2-fluoro-6-phenoxyphenyl)-2-methoxyimino-N-methylacetamide]",chromatographic logP,"physchem; pH 2, log P (pH 2)",2.56
same,pest or weed control at 500 g/ha,[1],≥ 98%
"CNC(=O)/C(=N/OC)c1ccc(F)cc1Oc1ncnc(Oc2ccccc2Cl)c1F [Example 7, N-methyl-2-{2-[6-(2-chlorophenoxy)-5-fluoropyrimidin-4-yloxy]-4-fluorophenyl}-2-methoxyiminoacetamide]",pest or weed control at 100 g/ha,[2],≥ 97%
same,chromatographic logP,"physchem; pH 2, log P (pH 2)",3.14
same,pest or weed control at 100 g/ha,Sphaerotheca fuliginea,≥ 98%
same,pest or weed control at 100 g/ha,Phytophthora infestans,≥ 86%
"CNC(=O)/C(=N/OC)c1c(F)cccc1COc1ccccc1C [Example 9, N-methyl-2-(2-fluoro-6-o-tolyloxymethylphenyl)-2-methoxyiminoacetamide]",pest or weed control at 100 g/ha,[2],≥ 97%
same,chromatographic logP,"physchem; pH 2, log P (pH 2)",3.03
same,pest or weed control at 100 g/ha,[3],≥ 82%
same,pest or weed control at 100 g/ha,Sphaerotheca fuliginea,≥ 98%
same,pest or weed control at 100 g/ha,Phytophthora infestans,≥ 86%
CNC(=O)/C(=N/OC)c1ccc(F)cc1Oc1ncnc(Oc2cccc(Cl)c2C)c1F [Example 10],chromatographic logP,physchem; logP,3.62
same,pest or weed control at 500 g/ha,[1],≥ 98%
CNC(=O)/C(=N/OC)c1ccc(F)cc1Oc1ncnc(Oc2ccccc2C#N)c1F [Example 11],chromatographic logP,physchem; logP,2.68
CNC(=O)/C(=N/OC)c1ccc(F)cc1Oc1nc(C)c(Cl)c(OCC(F)(F)C(F)(F)F)n1 [Example 13],chromatographic logP,physchem; logP,3.58
CNC(=O)/C(=N/OC)c1ccc(F)cc1Oc1ncnc(Oc2ccccc2C)c1F [Example 15],pest or weed control at 100 g/ha,[2],≥ 97%
same,chromatographic logP,physchem; logP,3.2
same,pest or weed control at 100 g/ha,[3],≥ 82%
same,pest or weed control at 100 g/ha,Sphaerotheca fuliginea,≥ 98%
same,pest or weed control at 100 g/ha,Phytophthora infestans,≥ 86%
CNC(=O)/C(=N/OC)c1ccc(F)cc1Oc1ncnc(Oc2cccc(F)c2)c1F [Example 17],chromatographic logP,physchem; logP,3.07
CNC(=O)/C(=N/OC)c1ccc(F)cc1Oc1ncnc(Oc2cccc(C#N)c2)c1F [Example 18],chromatographic logP,physchem; logP,2.71
CNC(=O)/C(=N/OC)c1ccc(F)cc1Oc1ncnc(Oc2cccc(OC)c2)c1F [Example 19],chromatographic logP,physchem; logP,2.91
CNC(=O)/C(=N/OC)c1ccc(F)cc1Oc1ncnc(Oc2ccccc2OC)c1F [Example 20],chromatographic logP,physchem; logP,2.82
CNC(=O)/C(=N/OC)c1ccc(F)cc1Oc1ncnc(Oc2cccc(Cl)c2)c1F [Example 21],chromatographic logP,physchem; logP,3.31
CNC(=O)/C(=N/OC)c1ccc(F)cc1Oc1ncnc(Oc2ccccc2SC)c1F [Example 23],chromatographic logP,physchem; logP,3.07
CNC(=O)/C(=N/OC)c1ccc(F)cc1Oc1ncnc(Oc2ccc(SC)cc2)c1F [Example 24],chromatographic logP,physchem; logP,3.24
CNC(=O)/C(=N/OC)c1ccc(F)cc1Oc1ncnc(Oc2cc(C)ccc2Cl)c1F [Example 25],chromatographic logP,physchem; logP,3.45
CNC(=O)/C(=N/OC)c1ccc(F)cc1Oc1ncnc(Oc2ccc(F)cc2Cl)c1F [Example 26],chromatographic logP,physchem; logP,3.27
CNC(=O)/C(=N/OC)c1ccc(F)cc1Oc1ncnc(Oc2ccccc2OC(C)C)c1F [Example 27],chromatographic logP,physchem; logP,3.32
CNC(=O)/C(=N/OC)c1ccc(F)cc1Oc1ncnc(Oc2ccc(SC)c(C)c2)c1F [Example 28],chromatographic logP,physchem; logP,3.54
CNC(=O)/C(=N/OC)c1ccc(F)cc1Oc1ncnc(Oc2ccc(OC)cc2Cl)c1F [Example 29],chromatographic logP,physchem; logP,3.2
CNC(=O)/C(=N/OC)c1ccc(F)cc1Oc1ncnc(Oc2cccc(C(F)(F)F)c2)c1F [Example 30],chromatographic logP,physchem; logP,3.46
CNC(=O)/C(=N/OC)c1ccc(F)cc1Oc1ncnc(Oc2ccc(C(F)(F)F)cc2)c1F [Example 32],chromatographic logP,physchem; logP,3.49
CNC(=O)/C(=N/OC)c1ccc(F)cc1Oc1ncnc(Oc2cccc(Cl)c2Cl)c1F [Example 33],pest or weed control at 100 g/ha,[2],≥ 97%
same,chromatographic logP,physchem; logP,3.53
same,pest or weed control at 100 g/ha,[3],≥ 82%
same,pest or weed control at 100 g/ha,Sphaerotheca fuliginea,≥ 98%
same,pest or weed control at 100 g/ha,Phytophthora infestans,≥ 86%
CNC(=O)/C(=N/OC)c1ccc(F)cc1Oc1ncnc(Oc2ccccc2Br)c1F [Example 34],chromatographic logP,physchem; logP,3.22
CNC(=O)/C(=N/OC)c1ccc(F)cc1Oc1ncnc(Oc2ccccc2OC(F)(F)F)c1F [Example 35],pest or weed control at 100 g/ha,[2],≥ 97%
same,chromatographic logP,physchem; logP,3.27
same,pest or weed control at 100 g/ha,[3],≥ 82%
same,pest or weed control at 100 g/ha,Sphaerotheca fuliginea,≥ 98%
CNC(=O)/C(=N/OC)c1ccc(F)cc1Oc1ncnc(Oc2cccc(OC(F)(F)F)c2)c1F [Example 36],chromatographic logP,physchem; logP,3.46
CNC(=O)/C(=N/OC)c1ccc(F)cc1Oc1ncnc(Oc2ccc(Br)cc2C)c1F [Example 37],chromatographic logP,physchem; logP,3.57
CNC(=O)/C(=N/OC)c1ccc(F)cc1Oc1ncnc(Oc2ccc(OC(F)(F)F)cc2C)c1F [Example 38],chromatographic logP,physchem; logP,3.71
CNC(=O)/C(=N/OC)c1ccc(F)cc1Oc1ncnc(Oc2ccc(SC(F)(F)F)cc2)c1F [Example 39],chromatographic logP,physchem; logP,3.75
CNC(=O)/C(=N/OC)c1ccc(F)cc1Oc1nccc(OCC(F)(F)C(F)(F)F)n1 [Example 40],chromatographic logP,physchem; logP,2.87
same,pest or weed control at 500 g/ha,[1],≥ 98%
CNC(=O)/C(=N\OC)c1c(F)cccc1Oc1ccccc1 [Example 41],chromatographic logP,physchem; logP,2.49
same,pest or weed control at 500 g/ha,[1],≥ 98%
CO/N=C(\C(=O)OC)c1c(F)cccc1Oc1ncnc(Oc2cccc(Cl)c2C)c1F [Example 42],chromatographic logP,physchem; logP,4.41
same,pest or weed control at 500 g/ha,[1],≥ 98%
CO/N=C(\C(=O)OC)c1c(F)cccc1Oc1ccccc1 [Example 43],chromatographic logP,physchem; logP,3.42
same,pest or weed control at 500 g/ha,[1],≥ 98%
CNC(=O)/C(=N/OC)c1c(F)cccc1Oc1nccc(OCC(F)(F)C(F)(F)F)n1 [Example 44],chromatographic logP,physchem; logP,2.89
same,pest or weed control at 500 g/ha,[1],≥ 98%
CO/N=C(/C(=O)OC)c1c(F)cccc1CO/N=C1\CCc2ccc(OC)cc21 [Example 49],chromatographic logP,physchem; logP,3.65
CNC(=O)/C(=N/OC)c1c(F)cccc1CO/N=C1\CCc2ccc(OC)cc21 [Example 52],chromatographic logP,physchem; logP,3.08
CO/N=C(/C(=O)OC)c1c(F)cccc1Oc1cc(C(F)(F)F)ncn1 [Example 53],chromatographic logP,physchem; logP,2.91
CO/N=C(\C(C)=N\OCc1cccc(F)c1/C(=N\OC)C(=O)OC)c1ccc(F)cc1F [Example 54],chromatographic logP,physchem; logP,4.13
CNC(=O)/C(=N/OC)c1c(F)cccc1CO/N=C(C)/C(=N\OC)c1ccc(F)cc1F [Example 55],chromatographic logP,physchem; logP,3.57
CNC(=O)/C(=N/OC)c1c(F)cccc1CO/N=C(C)/C(=N\OC)c1ccc(C)cc1 [Example 58],chromatographic logP,physchem; logP,3.71
CNC(=O)/C(=N/OC)c1c(F)cccc1CO/N=C(C)/C(=N\OC)c1ccc(F)cc1 [Example 59],chromatographic logP,physchem; logP,3.5
"CO/N=C(/C(=O)OC)c1c(O)cccc1F [Example (II-1), methyl (2-fluoro-6-hydroxyphenyl)methoxyiminoacetate]",chromatographic logP,"physchem; pH 2, log P (pH 2)",1.67
"CNC(=O)/C(=N/OC)c1c(O)cccc1F [Example (II-2), 2-(2-fluoro-6-hydroxyphenyl)-2-methoxyimino-N-methylacetamide]",chromatographic logP,"physchem; pH 2, log P (pH 2)",1.18
"CO/N=C(/C(=O)OC)c1ccc(F)cc1O [Example (II-3), methyl (4-fluoro-2-hydroxyphenyl)methoxyiminoacetate]",chromatographic logP,"physchem; pH 2, log P (pH 2)",2.62
"CNC(=O)/C(=N/OC)c1ccc(F)cc1O [Example (II-4), 2-(4-fluoro-2-hydroxyphenyl)-2-methoxyimino-N-methylacetamide]",chromatographic logP,"physchem; pH 2, log P (pH 2)",1.56
"COC(=O)C(=O)c1c(F)cccc1OC1CCCCO1 (stereo not drawn) [Example (XIII-1), methyl [2-fluoro-6-(tetrahydropyran-2-yloxy)phenyl]oxoacetate]",chromatographic logP,"physchem; pH 2, log P (pH 2)",2.78
"COC(=O)C(=O)c1ccc(F)cc1O [Example (XIV-1), methyl (4-fluoro-2-hydroxyphenyl)oxo-acetate]",chromatographic logP,"physchem; pH 2, log P (pH 2)",2.1
"COC(=O)C(=O)c1c(C)cccc1F [Example (XIX-1), methyl (2-fluoro-6-methylphenyl)oxoacetate]",chromatographic logP,"physchem; pH 2, log P (pH 2)",2.44
"CO/N=C(/C(=O)OC)c1c(C)cccc1F [Example (XVIII-1), methyl (2-fluoro-6-methylphenyl)methoxyiminoacetate]",chromatographic logP,"physchem; pH 2, log P (pH 2)",2.43
